Test results from US6949522B2, “β-2′- or 3′-halonucleosides” (Pharmasset, Inc., priority 2001, dated 2005).
Marks after values point to notes of the source that are not given here.

How the values were obtained:
human PBM cells = assay: in vitro; format: cell-based
Method: The compounds were evaluated for their potential toxic effects on uninfected PHA-stimulated human PBM cells, in CEM (T-lymphoblastoid cell line obtained from American Type Culture Collection, Rockville, Md.) and Vero (African green monkey kidney) cells. PBM cells were obtained from whole blood of healthy seronegative donors (HIV-1 and hepatitis B virus) by single-step Ficoll-Hypaque discontinous gradient centrifugation. […] All of the cells were plated in 96-well cell culture plates containing ten-fold serial dilutions of the test drug. […] At the end of incubation, MTT tetrazolium dye solution (Cell titer 96®, Promega, Madison, Wis.) was added to each well and incubated overnight. The reaction was stopped with stop solubilization solution (Promega, Madison, Wis.). The plates were incubated for 5 hours to ensure that the formazan crystals were dissolved. The plates were read at a wavelength of 570 nm using an ELISA plate reader (Bio-tek instruments, Inc., Winooski, Vt., Model # EL 312e). […] Bookmark not defined.

[1] = test system: Vero (African green monkey kidney) cells; assay: in vitro; format: cell-based
Method: (§1) The compounds were evaluated for their potential toxic effects on uninfected PHA-stimulated human PBM cells, in CEM (T-lymphoblastoid cell line obtained from American Type Culture Collection, Rockville, Md.) and Vero (African green monkey kidney) cells. PBM cells were obtained from whole blood of healthy seronegative donors (HIV-1 and hepatitis B virus) by single-step Ficoll-Hypaque discontinous gradient centrifugation. Log phase Vero, CEM and PHA-stimulated human PBM cells were seeded at a density of 5×10^3, 2.5×10^3 and 5×10^4 cells/well respectively. All of the cells were plated in 96-well cell culture plates containing ten-fold serial dilutions of the test drug. The cultures were incubated for 3, 4 and 5 days for Vero, CEM, and PBM cells, respectively in a humidified 5% CO2-air at 37° C. At the end of incubation, MTT tetrazolium dye solution (Cell titer 96®, Promega, Madison, Wis.) was added to each well and incubated overnight. The reaction was stopped with stop solubilization solution (Promega, Madison, Wis.). The plates were incubated for 5 hours to ensure that the formazan crystals were dissolved. The plates were read at a wavelength of 570 nm using an ELISA plate reader (Bio-tek instruments, Inc., Winooski, Vt., Model # EL 312e). […] Bookmark not defined.

HIV-1LAI = assay: HIV assay in human PBM cells (RT activity of supernatant); format: cell-based; conditions: 5 days, read-out: Anti-HIV-1 Activity (EC50)
Source text: Human peripheral blood mononuclear (PBM) cells (obtained from Atlanta Red Cross) were isolated by Ficoll-Hypaque discontinuous gradient centrifugation from healthy seronegative donors. Cells were stimulated with phytohemagglutinin A (Difco, Sparks, Md.) for 2-3 days prior to use. HIV-1LAI obtained from the Centers for Disease Control and Prevention (Atlanta, Ga.) was used as the standard reference virus for the antiviral assays. The molecular infetious clones HIV-1xxBru and HIV-1M184Vpin were obtained from Dr. John Mellors (University of Pittsburgh). Infections were done in bulk for one hour, either with 100 TCID50/1×10^7 cells for a flask (T25) assay or with 200 TCID50/6×10^5 cells/well for a 24 well plate assay. Cells were added to a plate or flask containing a ten-fold serial dilution of the test compound. Assay medium was RPMI-1640 supplemented with heat inactivated 16% fetal bovine serum, 1.6 mM L-glutamine, 80 IU/ml penicillin, 80 μg/ml streptomycin, 0.0008% DEAE-Dextran, 0.045% sodium bicarbonate, and 26 IU/ml recombinant interleukin-2 (Chiron Corp, Emeryville, Calif.). AZT was used as a positive control for the assay. Untreated and uninfected PBM cells were grown in parallel at equivalent cell concentrations as controls. The cell cultures were maintained in a humidified 5% CO2-air at 37° C. for 5 days and supernatants were collected for reverse transcriptase (RT) activity.
Supernatants were centrifuged at 12,000 rpm for 2 hours to pellet the virus. The pellet was solubilized with vortexing in 100 μl virus solubilization buffer (VSB) containing 0.5% Triton X-100, 0.8 M NaCl, 0.5 mM phenylmethylsulfonyl fluoride, 20% glycerol, and 0.05 M Tris, pH 7.8. Ten μL of each sample were added to 75 μL RT reaction mixture (0.06 M Tris, pH 7.8, 0.012 M MgCl2, 0.006 M dithiothreitol, 0.006 mg/ml poly (rA)n, oligo (dT)12-18, 96 μg/ml dATP, and 1 μM of 0.08 mCi/ml ^3H-thymidine triphosphate (Moravek Biochemicals, Brea, Calif.) and incubated at 37° C. for 2 hours. The reaction was stopped by the addition of 100 μL 10% trichloroacetic acid containing 0.05% sodium pyrophosphate. The acid insoluble product was harvested onto filter paper using a Packard Harvester (Meriden, Conn.), and the RT activity was read on a Packard Direct Beta Counter (Meriden, Conn.). The RT results were expressed in counts per minute (CPM) per milliliter.

[2] = test system: CEM (T-lymphoblastoid cell line); format: cell-based
Method: as §1

[3] = test system: mitochondrial cytochrome C oxidase subunit II (COXII) gene; format: cell-based, human; conditions: HepG2, 10 μM, 7 days
Source text: The Q-RT-PCR technology was also used to evaluate potential mitochondrial γ-DNA polymerase inhibition by the compounds of the present invention in relevant human cells. […] Since active nucleoside compounds in the triphosphate form lack a 3′-OH, thereby stopping virus replication by chain termination, there is a concern that these nucleoside analogues are also substrates for the human DNA polymerase γ, resulting in inhibition of mitochondrial DNA replication and subsequently toxic side effects (11, 19). In an attempt to provide direct quantifiable data on mitochondrial DNA levels intracellular, a Q-PCR technology was designed and relative quantification of COXII DNA levels were calculated using the comparative Ct method. […] Also, in agreement with previous observations, no changes in normalized mitochondrial DNA levels were observed after FIAU and D4T treatment (6, 8, 23).
Low passage number HepG2 cells, obtained from American Tissue Culture Collection (ATCC, Manassas, Va.) were seeded at 5,000 cells/well in collagen-coated 96-well plates. Test compounds were added to the media to obtain a final concentration of 10 μM. On culture day 7, cellular nucleic acids were prepared by using commercially available columns (RNeasy 96 kit, Qiagen). […] The mitochondrial cytochrome C oxidase subunit II (COXII) gene and the β-actin or rRNA gene were amplified from 5 μL with a multiplex Q-PCR protocol using the suitable primers and probes for both target and reference (designed using the Primer Express software, Applied Biosystems); • for COXII. • sense primer 5′-[…]-3′ (Sequence 7); • probe 5′-TET-[…]-TAMRA-3′ (Sequence 8); and • antisense probe 5′-[…]-3′ (Sequence 9); • for exon 3 of β-actin (GenBank E01094): • sense primer 5′-[…]-3′ (Sequence 10); • probe 5′-6FAM-[…]-TAMRA-3′ (Sequnece 11); and • antisense probe 5′-[…]-3′ (Sequence 12).
The rRNA gene primers and probes were purchased from Applied Biosystems. Standard curves using 1-log diluted total HepG2 DNA were linear over more than 5 logs. In addition, efficiencies of target (COXII DNA) and reference (β-actin DNA or rRNA) amplification were approximately equal, because the slope of the ΔCt line (Ct β-actin minus Ct mitochondrial) was less than 0.1 (not shown). Since equal amplification efficiencies were obtained for both genes, the comparative cycle threshold (Ct) method was used to investigate potential inhibition of the mitochondrial DNA polymerase γ. The comparative Ct method uses arithmetic formulas in which the amount of target (COXII gene) is normalized to an endogenous reference (β-actin gene or rRNA gene) and is relative to a calibrator (no drug control at day 7). The arithmetic formula for this approach is given by 2-ΔΔCt (User bulletin # 2, Applied Biosystems).
In order to study the consequences of possible inhibitory effects of these compounds on host DNA polymerases, nuclear and rnitochondrial DNA levels were quantified and compared to no-treatment controls. Cells were incubated for 7 days with 10 μM of each compound, followed by total nucleic acid extractions and multiplex Q-PCR of the rRNA gene and the mitochondrial COXII gene. Nucleic acids from cells exposed to the control compounds were also amplified in multiplex for mitDNA and the β-actin gene. The results are presented in Table 4 using the comparative Ct method.

Compound	IC50 (human PBM cells) [µM]	IC50 [1] [µM]	EC50 (HIV-1LAI) [µM]	IC50 [2] [µM]	COXIINβ-actin DNA (range) relative to control ([3]; COXII DNA normalized to β-actin DNA, 2-ΔΔCt)	Average ΔCt ± SD COXII DNA [3]	Average ΔΔCt ± SD COXII-β-actin [3]	effect on (normalized) mitochondrial COXII DNA levels, in words [3]	COXIINrDNA (range) relative to control ([3]; COXII DNA normalized to rDNA, 2-ΔΔCt)	Average ΔΔCt ± SD COXII-rDNA [3]
O=c1[nH]cnc2c1ncn2[C@@H]1S[C@H](CO)C=C1F [Compound D-28, (+)-9-[(1R,4S)-2,3-dideoxy-2,3-didehydro-2-fluoro-4-thio-β-D-ribofuranosyl]-hypoxanthine]	> 100	> 100	43.6	> 100	–	–	–	–	–	–
Nc1nc2c(ncn2[C@@H]2S[C@H](CO)C=C2F)c(=O)[nH]1 [Compound D-32, (−)-9-[(1R,4S)-2,3-dideoxy-2,3-didehydro-2-fluoro-4-thio-β-D-ribofuranosyl]-guanosine]	> 100	> 100	80.5	> 100	–	–	–	–	–	–
Nc1nc(F)nc2c1ncn2[C@@H]1S[C@H](CO)C=C1F [Compound D-33, (+)-9-[(1R,4S)-2,3-dideoxy-2,3-didehydro-2-fluoro-4-thio-β-D-ribofuranosyl]-2-fluoroadenosine]	1.5	7.6	1.2	1.1	–	–	–	–	–	–
Cc1cn([C@H]2S[C@@H](CO)C=C2F)c(=O)[nH]c1=O [Compound L-19, (+)-1-[(1S,4R)-2,3-dideoxy-2,3-didehydro-2-fluoro-4-thio-β-L-ribofuranosyl]-thymine]	> 100	> 100	> 100	> 100	–	–	–	–	–	–
O=c1ccn([C@H]2S[C@@H](CO)C=C2F)c(=O)[nH]1 [Compound L-20, (+)-1-[(1S,4R)-2,3-dideoxy-2,3-didehydro-2-fluoro-4-thio-β-L-ribofuranosyl]-uracil]	> 100	> 100	> 100	> 100	–	–	–	–	–	–
Nc1ncnc2c1ncn2[C@H]1S[C@@H](CO)C=C1F [Compound L-27, (−)-9-[(1S,4R)-2,3-dideoxy-2,3-didehydro-2-fluoro-4-thio-β-L-ribofuranosyl]adenine]	> 100	> 100	1.7	> 100	–	–	–	–	–	–
O=c1[nH]cnc2c1ncn2[C@H]1S[C@@H](CO)C=C1F [Compound L-28, (−)-9-[(1S,4R)-2,3-dideoxy-2,3-didehydro-2-fluoro-4-thio-β-L-ribofuranosyl]-hypoxanthine]	> 100	> 100	15.5	> 100	–	–	–	–	–	–
Nc1nc2c(ncn2[C@H]2S[C@@H](CO)C=C2F)c(=O)[nH]1 [Compound L-32, (+)-9-[(1S,4R)-2,3-dideoxy-2,3-didehydro-2-fluoro-4-thio-β-L-ribofuranosyl]-guanosine]	13	66.1	–	10.4	–	–	–	–	–	–
Cc1cn([C@H]2C=C[C@@H](CO)O2)c(=O)[nH]c1=O [D-D4T, β-D-2′,3′-didehydro-3′-deoxythymidine]	–	–	–	–	0.85 (0.79-0.88)	0.29 ± 0.01	0.23 ± 0.04	no changes	–	–
Nc1ccn([C@H]2CC[C@@H](CO)O2)c(=O)n1 [D-ddC, β-D-2′,3′-dideoxycytidine]	–	–	–	–	–	–	2.9 ± 0.23^d	reduce rnitochondrial COXII DNA levels	0.23 (0.15-0.37)	2.09 ± 0.65^d
(−)-1-[(1S,4R)-2,3-dideoxy-2,3-didehydro-2-fluoro-4-thio-β-D-ribofuranosyl]-thymine [Compound D-19]	> 100	53	92.3	> 100	–	–	–	–	–	–
(−)-1-[(1S,4R)-2,3-dideoxy-2,3-didehydro-2-fluoro-4-thio-β-D-ribofuranosyl]-uracil [Compound D-20]	> 100	> 100	> 100	> 100	–	–	–	–	–	–
